One assay relates to HBV rcDNA. As to the kind of experiment: HepDE19 assay with bDNA quantitation of HBV rcDNA. Conditions: HepDE19 cells, 7 day incubation, rcDNA measured by Quantigene 2.0 bDNA assay, top concentration 25 μM; read-out: DE-19bDNA EC50. The assay is classed as cell-based, hepatitis B virus (HBV). An outline of the steps:
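HepDE19 cells were switched to tetracycline-free medium and exposed to compound (0.5% DMSO final) for 7 days at 37° C. rcDNA was then quantified by bDNA with an HBV-specific probe set. In parallel, viability was read as ATP content (CellTiter-Glo) after 4 days on replicate plates.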
In the case of `CC(c1c[nH]c(=O)c2cc(F)c(F)cc12)N(C)C(=O)C1Cc2cc(F)ccc2N1` (stereo not shown) [Compound 62, N-(1-(6,7-Difluoro-1-oxo-1,2-dihydroisoquinolin-4-yl)ethyl)-5-fluoro-N-methylindoline-2-carboxamide], the EC50 is 0.19 µM.

Take `CC(c1c[nH]c(=O)c2cc(F)c(F)cc12)N(C)C(=O)C1Cc2cc(F)ccc2N1` (stereo not shown) [Compound 63, N-(1-(6,7-Difluoro-1-oxo-1,2-dihydroisoquinolin-4-yl)ethyl)-5-fluoro-N-methylindoline-2-carboxamide]: the EC50 is 5.2 µM. The same measure, in the same setting: the value for `CC(c1c[nH]c(=O)c2cc(F)c(F)cc12)N(C)C(=O)C1Cc2cc(F)ccc2N1` (stereo not shown) [Compound 64, N-(1-(6,7-Difluoro-1-oxo-1,2-dihydroisoquinolin-4-yl)ethyl)-5-fluoro-N-methylindoline-2-carboxamide] was 0.02 µM. With `CC(c1c[nH]c(=O)c2c(F)c(F)ccc12)N(C)C(=O)C1Cc2c(F)cc(F)cc2N1` (stereo not shown) [Compound 65, N-(1-(7,8-Difluoro-1-oxo-1,2-dihydroisoquinolin-4-yl)ethyl)-4,6-difluoro-N-methylindoline-2-carboxamide], the EC50 was found to be 11 µM. On the same count and under the same terms, the value for `CC(c1c[nH]c(=O)c2c(F)c(F)ccc12)N(C)C(=O)C1Cc2c(F)cc(F)cc2N1` (stereo not shown) [Compound 66, N-(1-(7,8-Difluoro-1-oxo-1,2-dihydroisoquinolin-4-yl)ethyl)-4,6-difluoro-N-methylindoline-2-carboxamide] was 0.21 µM; that for `CC(c1c[nH]c(=O)c2c(F)c(F)ccc12)N(C)C(=O)C1Cc2c(F)cc(F)cc2N1` (stereo not shown) [Compound 67, N-(1-(7,8-Difluoro-1-oxo-1,2-dihydroisoquinolin-4-yl)ethyl)-4,6-difluoro-N-methylindoline-2-carboxamide] was 3.1 µM; that for `CC(c1c[nH]c(=O)c2c(F)c(F)ccc12)N(C)C(=O)C1Cc2c(F)cc(F)cc2N1` (stereo not shown) [Compound 68, N-(1-(7,8-Difluoro-1-oxo-1,2-dihydroisoquinolin-4-yl)ethyl)-4,6-difluoro-N-methylindoline-2-carboxamide] was 0.2 µM. `CC(c1c[nH]c(=O)c2c(F)c(F)ccc12)N(C)C(=O)C1Cc2cc(F)ccc2N1` (stereo not shown) [Compound 73, N-(1-(7,8-Difluoro-1-oxo-1,2-dihydroisoquinolin-4-yl)ethyl)-5-fluoro-N-methylindoline-2-carboxamide]: the EC50 turned out to be 10 µM.

As to `CC(c1c[nH]c(=O)c2c(F)c(F)ccc12)N(C)C(=O)C1Cc2cc(F)ccc2N1` (stereo not shown) [Compound 74, N-(1-(7,8-Difluoro-1-oxo-1,2-dihydroisoquinolin-4-yl)ethyl)-5-fluoro-N-methylindoline-2-carboxamide], the EC50 turned out to be 0.26 µM. For the molecule `CC(c1c[nH]c(=O)c2c(F)c(F)ccc12)N(C)C(=O)C1Cc2cc(F)ccc2N1` (stereo not shown) [Compound 75, N-(1-(7,8-Difluoro-1-oxo-1,2-dihydroisoquinolin-4-yl)ethyl)-5-fluoro-N-methylindoline-2-carboxamide], the EC50 was determined as 0.83 µM.

As for `CC(c1c[nH]c(=O)c2c(F)c(F)ccc12)N(C)C(=O)C1Cc2cc(F)ccc2N1` (stereo not shown) [Compound 76, N-(1-(7,8-Difluoro-1-oxo-1,2-dihydroisoquinolin-4-yl)ethyl)-5-fluoro-N-methylindoline-2-carboxamide], the EC50 came to 4.4 µM. The same measure, in the same setting: the value for `CC(c1c[nH]c(=O)c2cc(F)c(F)cc12)N(C)C(=O)C1Cc2c(F)cc(F)cc2N1` (stereo not shown) [Compound 98, N-(1-(6,7-Difluoro-1-oxo-1,2-dihydroisoquinolin-4-yl)ethyl)-4,6-difluoro-N-methylindoline-2-carboxamide] was 5.9 µM.

The same assay, now with this note: Hepatitis B virus, HepDE19, 168 h, read-out: DE-19bDNA EC50 (μM), HepDE19 cells, 7 day incubation, rcDNA measured by Quantigene 2.0 bDNA assay, top concentration 25 μM.
Take `C[C@H](c1c[nH]c(=O)c2c(F)c(F)ccc12)N(C)C(=O)c1cccc(=O)[nH]1` [Compound 87, (R)-N-(1-(7,8-Difluoro-1-oxo-1,2-dihydroisoquinolin-4-yl)ethyl)-N-methyl-6-oxo-1,6-dihydropyridine-2-carboxamide]: the EC50 worked out at 18 µM.

(Values after US20230295115A1, “SUBSTITUTED ISOQUINOLINYLMETHYL AMIDES, ANALOGUES THEREOF, AND METHODS USING SAME” (priority 2020, published 2023).)
